In PubChem BioAssay (NCI):
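Dose response: 5 concentrations. Exposure: 48 h. Format: 96-well plates. Endpoint: linear interpolation; highest concentration if not reached. Abbreviation: GI50, concentration required for 50% inhibition of growth. The concentration for full growth arrest is given as TGI.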

Tests used:
Test in all cases: NCI anticancer screen, dose series, 48 h
CAKI-1 renal = test system: CAKI-1 renal
COLO 205 colon = test system: COLO 205 colon
DU-145 prostate = test system: DU-145 prostate
HCT-116 colon = test system: HCT-116 colon
LOX IMVI melanoma = test system: LOX IMVI melanoma
MCF7 breast = test system: MCF7 breast
SK-MEL-2 melanoma = test system: SK-MEL-2 melanoma
SK-OV-3 ovarian = test system: SK-OV-3 ovarian
SN12C renal = test system: SN12C renal
UACC-62 melanoma = test system: UACC-62 melanoma

SMILES | TGI (CAKI-1 renal) [µM] | TGI (COLO 205 colon) [µM] | TGI (DU-145 prostate) [µM] | TGI (HCT-116 colon) [µM] | TGI (LOX IMVI melanoma) [µM] | TGI (MCF7 breast) [µM] | TGI (SK-MEL-2 melanoma) [µM] | TGI (SK-OV-3 ovarian) [µM] | TGI (SN12C renal) [µM] | TGI (UACC-62 melanoma) [µM] | GI50 (CAKI-1 renal) [µM] | GI50 (COLO 205 colon) [µM] | GI50 (LOX IMVI melanoma) [µM] | GI50 (SK-MEL-2 melanoma) [µM] | GI50 (SK-OV-3 ovarian) [µM] | GI50 (SN12C renal) [µM] | GI50 (UACC-62 melanoma) [µM]
COc1cccc(NC(=O)CC(=O)NN)c1 | > 100 | > 100 | > 100 | > 100 | > 100 | > 100 | > 100 | > 100 | > 100 | > 100 | – | – | – | – | – | – | –
C/C(=C\C(=O)Nc1ccc2n[nH]nc2c1)Nc1ccc2n[nH]nc2c1 | > 100 | > 100 | – | > 100 | > 100 | – | – | > 100 | > 100 | > 100 | – | – | – | – | – | – | –
Cc1ccc(C(=O)N/N=C(\N=Nc2ccc([N+](=O)[O-])cc2)c2ccc(N(CCC#N)CCC#N)cc2C)cc1 | > 100 | > 100 | > 100 | > 100 | > 100 | > 100 | > 100 | > 100 | > 100 | – | – | – | – | – | – | – | –
C[N+]1(C)CCCC(C#N)(c2ccccc2)CC1 (configuration not stated) | > 100 | > 100 | > 100 | > 100 | – | > 100 | – | > 100 | – | – | – | – | – | – | – | – | –
Cc1c2cc[n+](Cc3ccc(I)cc3)cc2c(C)c2c1[nH]c1ccccc12 | 3.51 | 6.16 | – | > 16.8 | > 25 | 3.06 | 1.64 | > 13.5 | > 25 | 16.6 | – | – | – | – | – | – | –
Cc1ccc(S(=O)(=O)N/N=C2\C=CC3(CC2)C(=O)N(I)c2ccccc23)cc1 (configuration not stated) | > 100 | > 100 | – | > 100 | > 100 | – | > 100 | > 100 | > 100 | > 100 | – | – | – | – | – | – | –
CN(C)C(=O)C(F)(F)C(c1ccccc1)C1C(=O)N(C)C(=O)N(C)C1=O (configuration not stated) | > 100 | > 100 | > 100 | > 100 | > 100 | > 100 | > 100 | > 100 | – | > 100 | – | – | – | – | – | – | –
CSc1cc(Cl)c(C)cc1S(=O)(=O)NC(=O)NNc1ccc(C)cc1 | > 100 | > 100 | > 100 | > 100 | > 100 | > 100 | > 100 | > 100 | > 100 | – | – | – | – | – | – | – | –
ClC1=NSSC1(Cl)Cl | 34.8 | 30.8 | > 100 | > 100 | > 100 | > 100 | > 100 | – | 41.7 | > 100 | – | – | – | – | – | – | –
C[C@]12CC[C@H]3[C@@H](CC=C4C[C@@H](O)CC[C@@]43C)[C@@H]1C/C(=C\c1cccnc1)[C@@H]2O | – | > 100 | 67.4 | > 100 | 4.46 | 42.5 | > 100 | 34.2 | 55.2 | 39.8 | – | – | – | – | – | – | –
COc1ccc(OC)c2c(C(C)=O)cccc12 | – | > 100 | > 100 | > 100 | – | > 100 | – | > 100 | > 100 | > 100 | – | – | – | – | – | – | –
Oc1c(Br)cc2c(c1Br)-c1c(c(O)c3c4c1=NCCC=4C=N3)NCC2 | 42.2 | 11.7 | – | 28.8 | 20.9 | 22.2 | 26.4 | 54.8 | 29.3 | 11.4 | – | – | – | – | – | – | –
CN(C(=O)Cc1ccccc1)n1cn[n+](CC(=O)OC(C)(C)C)c1 | > 10 | > 10 | > 10 | > 10 | > 10 | > 10 | – | > 10 | > 10 | > 10 | – | – | – | – | – | – | –
CNC(=S)N/N=C/C(C)=N/NC(=S)NC | – | > 100 | – | > 100 | > 100 | – | > 100 | > 100 | > 100 | > 100 | – | – | – | – | – | – | –
Nc1nc(Cl)c(CO)c(NCC2(CO)CCC2)n1 | > 100 | > 100 | > 100 | > 100 | > 100 | > 100 | – | – | > 100 | – | – | – | – | – | – | – | –
CC(C)(C)OC(=O)Cn1ncn(NC(=O)Cc2ccccc2)c1=S | > 10 | > 10 | > 10 | > 10 | > 10 | > 10 | – | > 10 | > 10 | > 10 | – | – | – | – | – | – | –
N#C[S-].[La+3].c1ccc(-c2ccccn2)nc1.c1ccc(-c2ccccn2)nc1.c1ccc(-c2ccccn2)nc1 | 60.8 | > 100 | – | – | 68.3 | – | 53.6 | 99.6 | > 100 | 50.3 | 12.9 | 45.5 | 7.3 | 21.5 | 31.7 | 19.2 | 19.5
